Source: US20260091209A1, “DRUG DELIVERY DEVICE” (priority 2022, published 2026)
Each block holds one molecule with its values, some of them ahead of it.

Key:
[1] = Drug release rate into 50:50 DMSO:water release media, HPLC; assay type: physicochemical; conditions: for completeness of release after 7 days / course of release (plateau): FOLFIRINOX components from device, FIG. 5; for course of release (plateau): over 7 days
Description: Drug release rate was measured using 50 mL of release media consisting of 50:50 DMSO:water to ensure that all drugs in the composition remained under sink conditions. Each device was suspended above the release media in a 50 mL sealed Duran bottle with only the permeable release zone in contact with the release media. The Duran bottle was subsequently placed in a shaking incubator at 37° C. and 60 RPM. 5 mL samples of release media were removed and replaced with 5 mL of fresh media either every day for 6 days or at day 1, 3, 5 and 7. The samples were analysed for drug concentration using HPLC.
Release of the drug oxaliplatin by (i) an exposed sponge and (ii) a device according to the present invention was compared. The sponge was a gelatin sponge exposed to 50 mL of release media consisting of 50:50 DMSO. The sponge had the proportions 5 mm×10 mm×10 mm. […] The implantable device according to the invention contained a sponge within the enclosed space. Drug release was determined according to the methodology outlined above.
Release of the drug components of the FOLFIRINOX regimen from a device according to the invention was investigated. […] The implantable device according to the invention contained a sponge within the enclosed space. Drug release was determined according to the methodology outlined above.
The release of the drug irinotecan over 6 days through various membranes for use as the permeable release zone was investigated, to show how the device of the invention provides the skilled person with control over the release profile for the drug, by varying properties of the membrane.

pancreatic cancer = conditions: cited from earlier work
[2] = 1 mm EVA membrane, no pores, 75% infill

- completeness of release after 7 days [1, 2]: still not complete
- course of release (plateau) [1, 2]: began to plateau after three days
Structure (SMILES): O=c1[nH]cc(F)c(=O)[nH]1 [fluorouracil]

Structure (SMILES): Nc1ccn([C@@H]2O[C@H](CO)[C@@H](O)C2(F)F)c(=O)n1 [gemcitabine]
- median disease-free survival (pancreatic cancer; Conroy et al (2018), patients after surgery): 12.8 months
- disease-free survival rate at 3 years (pancreatic cancer; Conroy et al (2018)): 21.4%
- median overall survival (pancreatic cancer; Conroy et al (2018)): 35.0 months
- overall survival rate at 3 years (pancreatic cancer; Conroy et al (2018)): 48.6%
- adverse events of grade 3 or 4, share of patients (pancreatic cancer; Conroy et al.): 52.9%

- completeness of release after 7 days [1, 2]: still not complete
- course of release (plateau) [1, 2]: began to plateau after three days
- release character across all membranes investigated ([1]; device, over 6 days): useful sustained release
Structure (SMILES): CCc1c2c(nc3ccc(OC(=O)N4CCC(N5CCCCC5)CC4)cc13)-c1cc3c(c(=O)n1C2)COC(=O)[C@]3(O)CC [irinotecan]
- release rate, membrane pore sizes 3 mm, 4 mm and 5 mm ([1]; 4 pores each, over 6 days, FIG. 6D): as pore size increased the rate of release also increased
- release rate, membrane thickness 1 mm versus 2 mm ([1]; device, over 6 days, FIG. 6A): released faster through the membrane with a thickness of 1 mm
- release rate, 3D printed membrane infill 50%, 75% and 100% ([1]; device, over 6 days, FIG. 6B): as the percentage infill increased, the release rate slowed
- release rate, membranes with one, two or four pores ([1]; pores 3 mm diameter, over 6 days, FIG. 6C): as the number of pores increased the rate of release also increased

- completeness of release after 7 days [1, 2]: still not complete
- course of release (plateau) [1, 2]: began to plateau after three days
Structure (SMILES): Nc1nc2c(c(=O)[nH]1)N(C=O)C(CNc1ccc(C(=O)N[C@@H](CCC(=O)O)C(=O)O)cc1)CN2 (stereo partly drawn) [leucovorin]

Structure (SMILES): O=C1[O][Pt]2([NH][C@@H]3CCCC[C@H]3[NH]2)[O]C1=O [oxaliplatin]
- completeness of release after 7 days [1, 2]: still not complete
- course of release (plateau) [1, 2]: began to plateau after three days
- completeness of release at 7 days (168 hours) ([1]; device, 1 mm EVA membrane, no pores, 75% infill, sponge inside, FIG. 4): not complete
- release plateau ([1]; device, 1 mm EVA membrane, no pores, 75% infill, after 5 days, FIG. 4): 75%
- time to complete release ([1]; exposed gelatin sponge (comparative), FIG. 3): ≤ 7 h
